# From patent publication US20240279232A1, “USE OF SUBSTITUTED 5-(4-METHYL-6-PHENYL-4H-BENZO[F]IMIDAZO[1,5-A][1,4] DIAZEPIN-3-YL)-1,2,4-O[…] THE TREATMENT OF INFLAMMATORY CONDITIONS” (priority 2021, published 2024)
# Biological target: T1, MOR (μ opioid receptor) (Homo sapiens, UniProt P35372)
# T1 construct: expressed in transfected cells; host or cells: HEK293
# Assay: MOR radioligand binding ([3H]-DAMGO, HEK293 cell homogenates)
# Details: Percent inhibition at 10,000 nM; [3H]-DAMGO
# Description: (§1) Radioligand binding assays. Detailed protocols for the primary and secondary radioligand binding assays can be found in the National Institute of Mental Health's Psychoactive Drug Screening Program (NIMH PDSP) Assay Protocol Book (Roth, 2018). Briefly, primary and secondary radioligand binding assays are carried out in a final of volume of 125 μL per well in appropriate binding buffer. […] Total binding and nonspecific binding are determined in the absence and presence of 10 μM of appropriate reference compound (Naltrindole DOR, Salvinorin A KOR and DAMGO MOR). In brief, plates are usually incubated at room temperature and in the dark for 90 min. Reactions are stopped by vacuum filtration onto 0.3% polyethyleneimine (PEI) soaked 96-well filter mats using a 96-well Filtermate harvester, followed by three washes with cold PBS buffer. Scintillation cocktail is then melted onto the microwave-dried filters on a hot plate and radioactivity counted in a Microbeta counter. The data (n=6) were analyzed by nonlinear regression.
# (§2) Ligand affinities were determined for KOR (κ opioid receptor), DOR (δ opioid receptor), and MOR (μ opioid receptor) using radioligand binding assays at a screening concentration of 10,000 nM. For these assays, cell homogenates from HEK293 cells that overexpressed KOR, MOR, and DOR were used in combination with [^3H]-U69593, [^3H]-DAMGO, and [^3H]-DADLE, respectively Compounds that exceeded more than 50% radioligand displacement were investigated further in concentration-dependent experiments to determine Ki values. Gamma aminobutyric acid type A receptor (GABAAR) binding was determined with rat brain homogenate and ^3H-flunitrazepam. Flunitrazepam binds GABAAR subtypes that consists of two α and two β subunits and one γ or δ subunit. Strong affinities to α1-3,5,6β1-3γ1-y/δ GABAARS have been reported for flunitrazepam. The […] GABAAR subtype expression in the brain includes 43% α1β2γ2, 15% α2β3γ2+8% α2βγ1, 10% α3β3γ2, 6% α4βγ/δ, 4% α5β3γ2, and 4% α6β2γ2/δ. Therefore, compounds with high affinity toward the synaptic benzodiazepine-sensitive receptors (BZR) predominately bind α1-3β2-3γ1-2 GABAARs. Alternatively, compounds with weak BZR binding might be selective for α4-6βγ/δ GABAARs.
# (§3) Psychoactive Drug Screening Program. Detailed protocols for the primary and secondary radioligand binding assays can be found in the National Institute of Mental Health's Psychoactive Drug Screening Program (NIMH PDSP) Assay Protocol Book. Briefly, primary and secondary radioligand binding assays are carried out in a final of volume of 125 μL per well in appropriate binding buffer. The radioactive ligand concentration is close to the Kd. Total binding and nonspecific binding are determined in the absence and presence of 10 μM of appropriate reference compound, respectively. In brief, plates are usually incubated at room temperature and in the dark for 90 min. Reactions are stopped by vacuum filtration onto 0.3% polyethyleneimine (PEI) soaked 96-well filter mats using a 96-well Filtermate harvester, followed by three washes with cold PBS buffer. Scintillation cocktail is then melted onto the microwave-dried filters on a hot plate and radioactivity counted in a Microbeta counter. The data (n=6) were analyzed by nonlinear regression.
# T1 sequence (P35372 whole entry, species assumed): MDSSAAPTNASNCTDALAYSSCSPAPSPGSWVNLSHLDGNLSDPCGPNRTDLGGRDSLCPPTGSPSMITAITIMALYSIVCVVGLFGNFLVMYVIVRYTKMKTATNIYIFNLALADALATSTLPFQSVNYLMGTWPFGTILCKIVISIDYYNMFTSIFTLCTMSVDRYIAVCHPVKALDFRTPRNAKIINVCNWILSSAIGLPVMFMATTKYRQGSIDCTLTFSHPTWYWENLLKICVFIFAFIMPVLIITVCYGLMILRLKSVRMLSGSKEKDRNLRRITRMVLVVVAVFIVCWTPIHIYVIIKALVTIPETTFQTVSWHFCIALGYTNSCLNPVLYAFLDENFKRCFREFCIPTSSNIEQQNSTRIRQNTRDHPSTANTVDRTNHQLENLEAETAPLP
row,Compound,inhibition at 10 µM [%]
1,C#Cc1ccc2c(c1)C(c1ccccn1)=NCc1c(-c3ocnc3C)ncn1-2 [KRM-III-79],32
2,C#Cc1ccc2c(c1)C(c1ccccc1F)=N[C@@H](C)c1c(C(=O)NC)ncn1-2 [MP-II-023],0
3,C#Cc1ccc2c(c1)C(c1ccccn1)=NCc1c(C(=O)OC(C)C)ncn1-2 [MP-II-068],0
4,C#Cc1ccc2c(c1)C(c1ccccc1F)=N[C@H](C)c1c(C(=O)OC)ncn1-2 [MP-III-004],0
5,C#Cc1ccc2c(c1)C(c1ccccc1F)=N[C@@H](C)c1c(C(N)=O)ncn1-2 [MP-III-018.B],2
6,C#Cc1ccc2c(c1)C(c1ccccc1F)=N[C@H](C)c1c(C(N)=O)ncn1-2 [MP-III-019.B],2
7,C#Cc1ccc2c(c1)C(c1ccccc1F)=N[C@@H](C)c1c(C(=O)OC)ncn1-2 [MP-III-021],0
8,C#Cc1ccc2c(c1)C(c1ccccn1)=NCc1c(C(=O)OC)ncn1-2 [MP-III-024],0
9,COC(=O)c1ncn2c1[C@@H](C)N=C(c1ccccc1F)c1cc(Br)ccc1-2 [MP-III-058],0
10,C#Cc1ccc2c(c1)C(c1ccccn1)=NCc1c(-c3nc(C)no3)ncn1-2 [MP-III-085],0
11,C#Cc1ccc2c(c1)C(c1ccccc1F)=N[C@H](C)c1c(C(=O)O)ncn1-2 [SH-053-2'F-R-CH3-Acid],0

# Tested on: BZR (benzodiazepine site of GABAAR)
# Assay: GABAAR/BZR binding, rat brain homogenate with 3H-flunitrazepam
# Details: Percent inhibition at 10,000 nM; rat brain homogenate, 3H-flunitrazepam
# Description: as §2, §3
row,Compound,BZR % [%]
1,C#Cc1ccc2c(c1)C(c1ccccn1)=NCc1c(-c3ocnc3C)ncn1-2 [KRM-III-79],81
2,C#Cc1ccc2c(c1)C(c1ccccc1F)=N[C@@H](C)c1c(C(=O)NC)ncn1-2 [MP-II-023],97
3,C#Cc1ccc2c(c1)C(c1ccccn1)=NCc1c(C(=O)OC(C)C)ncn1-2 [MP-II-068],97
4,C#Cc1ccc2c(c1)C(c1ccccc1F)=N[C@H](C)c1c(C(=O)OC)ncn1-2 [MP-III-004],78
5,C#Cc1ccc2c(c1)C(c1ccccc1F)=N[C@@H](C)c1c(C(N)=O)ncn1-2 [MP-III-018.B],97
6,C#Cc1ccc2c(c1)C(c1ccccc1F)=N[C@H](C)c1c(C(N)=O)ncn1-2 [MP-III-019.B],94
7,C#Cc1ccc2c(c1)C(c1ccccc1F)=N[C@@H](C)c1c(C(=O)OC)ncn1-2 [MP-III-021],88
8,C#Cc1ccc2c(c1)C(c1ccccn1)=NCc1c(C(=O)OC)ncn1-2 [MP-III-024],81
9,COC(=O)c1ncn2c1[C@@H](C)N=C(c1ccccc1F)c1cc(Br)ccc1-2 [MP-III-058],86
10,C#Cc1ccc2c(c1)C(c1ccccn1)=NCc1c(-c3nc(C)no3)ncn1-2 [MP-III-085],82
11,C#Cc1ccc2c(c1)C(c1ccccc1F)=N[C@H](C)c1c(C(=O)O)ncn1-2 [SH-053-2'F-R-CH3-Acid],93

# Same assay, conditions: rat brain homogenate, 3H-flunitrazepam
row,Compound,Ki [nM]
1,C#Cc1ccc2c(c1)C(c1ccccn1)=NCc1c(-c3ocnc3C)ncn1-2 [KRM-III-79],308
2,C#Cc1ccc2c(c1)C(c1ccccc1F)=N[C@@H](C)c1c(C(=O)NC)ncn1-2 [MP-II-023],37
3,C#Cc1ccc2c(c1)C(c1ccccn1)=NCc1c(C(=O)OC(C)C)ncn1-2 [MP-II-068],42
4,C#Cc1ccc2c(c1)C(c1ccccc1F)=N[C@H](C)c1c(C(=O)OC)ncn1-2 [MP-III-004],445
5,C#Cc1ccc2c(c1)C(c1ccccc1F)=N[C@@H](C)c1c(C(N)=O)ncn1-2 [MP-III-018.B],17
6,C#Cc1ccc2c(c1)C(c1ccccc1F)=N[C@H](C)c1c(C(N)=O)ncn1-2 [MP-III-019.B],54
7,C#Cc1ccc2c(c1)C(c1ccccc1F)=N[C@@H](C)c1c(C(=O)OC)ncn1-2 [MP-III-021],219
8,C#Cc1ccc2c(c1)C(c1ccccn1)=NCc1c(C(=O)OC)ncn1-2 [MP-III-024],277
9,COC(=O)c1ncn2c1[C@@H](C)N=C(c1ccccc1F)c1cc(Br)ccc1-2 [MP-III-058],290
10,C#Cc1ccc2c(c1)C(c1ccccn1)=NCc1c(-c3nc(C)no3)ncn1-2 [MP-III-085],357
11,C#Cc1ccc2c(c1)C(c1ccccc1F)=N[C@H](C)c1c(C(=O)O)ncn1-2 [SH-053-2'F-R-CH3-Acid],37

# Biological target: T2, KOR (κ opioid receptor) (Homo sapiens, UniProt P41145)
# T2 construct: expressed in transfected cells; host or cells: HEK293 (stably transfected)
# Assay: KOR radioligand binding ([3H]-U69593, HEK293 cell homogenates)
# Details: Percent inhibition at 10,000 nM; [3H]-U69593
# Description: as §1, §2, §3
# T2 sequence (P41145 whole entry): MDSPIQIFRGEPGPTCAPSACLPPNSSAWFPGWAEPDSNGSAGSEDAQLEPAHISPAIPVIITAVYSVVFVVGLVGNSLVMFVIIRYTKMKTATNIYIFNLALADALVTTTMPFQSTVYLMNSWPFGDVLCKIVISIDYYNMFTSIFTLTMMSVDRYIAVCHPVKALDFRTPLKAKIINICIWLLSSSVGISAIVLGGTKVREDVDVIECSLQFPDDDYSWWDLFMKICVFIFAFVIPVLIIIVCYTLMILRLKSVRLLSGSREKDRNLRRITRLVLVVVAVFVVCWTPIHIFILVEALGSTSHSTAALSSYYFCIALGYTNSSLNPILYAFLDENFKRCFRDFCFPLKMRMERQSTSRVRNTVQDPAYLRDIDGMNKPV
row,Compound,inhibition at 10 µM [%]
1,C#Cc1ccc2c(c1)C(c1ccccn1)=NCc1c(-c3ocnc3C)ncn1-2 [KRM-III-79],9
2,C#Cc1ccc2c(c1)C(c1ccccc1F)=N[C@@H](C)c1c(C(=O)NC)ncn1-2 [MP-II-023],91
3,C#Cc1ccc2c(c1)C(c1ccccn1)=NCc1c(C(=O)OC(C)C)ncn1-2 [MP-II-068],85
4,C#Cc1ccc2c(c1)C(c1ccccc1F)=N[C@H](C)c1c(C(=O)OC)ncn1-2 [MP-III-004],76
5,C#Cc1ccc2c(c1)C(c1ccccc1F)=N[C@@H](C)c1c(C(N)=O)ncn1-2 [MP-III-018.B],51
6,C#Cc1ccc2c(c1)C(c1ccccc1F)=N[C@H](C)c1c(C(N)=O)ncn1-2 [MP-III-019.B],62
7,C#Cc1ccc2c(c1)C(c1ccccc1F)=N[C@@H](C)c1c(C(=O)OC)ncn1-2 [MP-III-021],93
8,C#Cc1ccc2c(c1)C(c1ccccn1)=NCc1c(C(=O)OC)ncn1-2 [MP-III-024],43
9,COC(=O)c1ncn2c1[C@@H](C)N=C(c1ccccc1F)c1cc(Br)ccc1-2 [MP-III-058],84
10,C#Cc1ccc2c(c1)C(c1ccccn1)=NCc1c(-c3nc(C)no3)ncn1-2 [MP-III-085],40
11,C#Cc1ccc2c(c1)C(c1ccccc1F)=N[C@H](C)c1c(C(=O)O)ncn1-2 [SH-053-2'F-R-CH3-Acid],16

# Same assay, conditions: concentration-dependent, [3H]-U69593; read-out: KOR (Ki)
row,Compound,Ki [nM]
1,C#Cc1ccc2c(c1)C(c1ccccc1F)=N[C@@H](C)c1c(C(=O)NC)ncn1-2 [MP-II-023],119
2,C#Cc1ccc2c(c1)C(c1ccccn1)=NCc1c(C(=O)OC(C)C)ncn1-2 [MP-II-068],550
3,C#Cc1ccc2c(c1)C(c1ccccc1F)=N[C@H](C)c1c(C(=O)OC)ncn1-2 [MP-III-004],599
4,C#Cc1ccc2c(c1)C(c1ccccc1F)=N[C@@H](C)c1c(C(N)=O)ncn1-2 [MP-III-018.B],2780
5,C#Cc1ccc2c(c1)C(c1ccccc1F)=N[C@H](C)c1c(C(N)=O)ncn1-2 [MP-III-019.B],1530
6,C#Cc1ccc2c(c1)C(c1ccccc1F)=N[C@@H](C)c1c(C(=O)OC)ncn1-2 [MP-III-021],122

# Biological target: T3, DOR (δ opioid receptor) (Homo sapiens, UniProt P41143)
# T3 construct: expressed in transfected cells; host or cells: HEK293
# Assay: DOR radioligand binding ([3H]-DADLE, HEK293 cell homogenates)
# Details: Percent inhibition at 10,000 nM; [3H]-DADLE
# Description: as §1, §2, §3
# T3 sequence (P41143 whole entry): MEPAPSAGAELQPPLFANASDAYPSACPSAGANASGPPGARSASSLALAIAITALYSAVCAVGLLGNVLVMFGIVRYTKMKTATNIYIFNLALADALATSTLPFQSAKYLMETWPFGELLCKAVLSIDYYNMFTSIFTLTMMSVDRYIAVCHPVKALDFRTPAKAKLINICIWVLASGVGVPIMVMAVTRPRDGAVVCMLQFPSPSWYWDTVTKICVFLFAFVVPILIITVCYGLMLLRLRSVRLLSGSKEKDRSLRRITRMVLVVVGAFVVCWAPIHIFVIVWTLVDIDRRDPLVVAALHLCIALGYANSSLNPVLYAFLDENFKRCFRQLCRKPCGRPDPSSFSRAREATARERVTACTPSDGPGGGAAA
row,Compound,inhibition at 10 µM [%]
1,C#Cc1ccc2c(c1)C(c1ccccn1)=NCc1c(-c3ocnc3C)ncn1-2 [KRM-III-79],1
2,C#Cc1ccc2c(c1)C(c1ccccc1F)=N[C@@H](C)c1c(C(=O)NC)ncn1-2 [MP-II-023],16
3,C#Cc1ccc2c(c1)C(c1ccccn1)=NCc1c(C(=O)OC(C)C)ncn1-2 [MP-II-068],34
4,C#Cc1ccc2c(c1)C(c1ccccc1F)=N[C@H](C)c1c(C(=O)OC)ncn1-2 [MP-III-004],24
5,C#Cc1ccc2c(c1)C(c1ccccc1F)=N[C@@H](C)c1c(C(N)=O)ncn1-2 [MP-III-018.B],10
6,C#Cc1ccc2c(c1)C(c1ccccc1F)=N[C@H](C)c1c(C(N)=O)ncn1-2 [MP-III-019.B],0
7,C#Cc1ccc2c(c1)C(c1ccccc1F)=N[C@@H](C)c1c(C(=O)OC)ncn1-2 [MP-III-021],22
8,C#Cc1ccc2c(c1)C(c1ccccn1)=NCc1c(C(=O)OC)ncn1-2 [MP-III-024],24
9,COC(=O)c1ncn2c1[C@@H](C)N=C(c1ccccc1F)c1cc(Br)ccc1-2 [MP-III-058],4
10,C#Cc1ccc2c(c1)C(c1ccccn1)=NCc1c(-c3nc(C)no3)ncn1-2 [MP-III-085],0
11,C#Cc1ccc2c(c1)C(c1ccccc1F)=N[C@H](C)c1c(C(=O)O)ncn1-2 [SH-053-2'F-R-CH3-Acid],0
